Data taken from patent publication US6015560A, “Antibody recognizing endothelial cell ligand for leukocyte CR3” (priority 1995, dated 2000).

Assays:
B. pertussis = conditions: in vivo; cited from earlier work
albumin = conditions: cited from earlier work
blood brain barrier = experiment: Rabbit meningitis model: CSF protein and lactate (blood brain barrier permeability); assay type: in vivo
Procedure: (§1) The rabbit model was performed according to an established protocol. Specific pathogen free, New Zealand white rabbits (2 kg; Hare Marland, Nutley, N.J.) were anesthetized with valium (2.5 mg/kg, subcutaneously, Hoffman-LaRoche, Nutley, N.J.), ketamine (35 mg/kg, intramuscularly, Aveco, Fort Dodge, Iowa) and xylazine (5 mg/kg, intramuscularly, Miles Laboratories, Shawnee, Kans.) and a helmet of dental acrylic was affixed to the calvarium. Twenty four hours later, the rabbits were anesthetized with ethyl carbamate (1.75 g/kg; Aldrich Chemical Co., Milwaukee, Wis.) and pentobarbital (15 mg/kg; Abbott Laboratories, Abbott Park, Ill.) and placed in a stereotaxic frame. A spinal needle was introduced into the cisterna magna and 300 μl of CSF was withdrawn. The animals were challenged intracisternally with 10^8 heat killed, unencapsulated pneumococcus strain R6 introduced in 200 μl of saline (time 0). One hour later, animals were treated with peptides dissolved in 1 ml of saline by intravenous injection into the right marginal ear vein. The concentration of FHA was 0.1 μM and that of the FHA Ia, Factor X II, and scrambled FHA II peptides was 10 μM. For the acetyl-FHA II, acetyl/amide-FHA II, dimer of FHA II and trimer of FHA II peptides, the concentration was 10^-3 μM. The concentration of FHA II is given in the results section. Samples of CSF were withdrawn at hourly intervals after pneumococcal inoculation and leukocyte density was measured using a cell counter (Coulter Electronics Inc., Hialeah, Fla.). CSF samples were centrifuged at 10,000×g for 5 minutes and the supernatant was stored at -70° C. until assayed for protein concentration using the bicinchoninic acid method (BCA Kit, Pierce Chemical Co., Rockford, Ill.) and for lactate concentration (Lactate Detection Kit, Sigma, St. Louis, Mo.). Statistically significant differences between treatments were determined by a one way analysis of variance test.
Loss of barrier function of the cerebral capillary endothelium during inflammation is reflected by an influx of serum proteins into the CSF. […] To examine if the peptides were able to ameliorate these measures of cerebral injury, CSF protein and lactate concentrations were measured hourly in peptide-treated and control animals (Table 10).
Leukocyte migration into the CSF in bacterial meningitis is associated with loss of barrier function of the cerebral capillary endothelium, resulting in influx of serum proteins into the CSF. To determine whether FHA peptides were able to prevent this leukocyte-dependent injury, protein concentrations in the CSF were measured throughout the course of inflammation in peptide-treated and control animals.

CD11b/CD18 = target: T1, CD11b/CD18 (Homo sapiens, UniProt P05107+P11215); experiment: Downmodulation of CD11b/CD18 on macrophages (binding of C3bi-coated erythrocytes); assay type: cell-based; conditions: 0.5 mM
T1 construct: C3bi-erythrocyte rosetting after spreading on peptide-coated wells
Procedure: Human monocytes were purified from buffy coats on Percoll gradients and cultured in 12.5% human serum in Teflon beakers. Macrophages were harvested from Teflon beakers after 6-8 days and suspended in HAP buffer. Terasaki wells were coated with 5 μl of peptides (0.5 mM) or anti-CD18 mAb IB4 (50 μg/ml). Control wells were coated with HAP. After 2 hours of incubation at RT, 5 μl of macrophages (5×10^5 /ml HAP) were added and allowed to spread for 45 mins. at 37° C. […] IgM-coated erythrocytes in buffer served as negative control. After washing, the number of erythrocytes bound per 100 leukocytes (adherence index) was quantitated visually under an inverted microscope.

[1] = test system: human umbilical vein endothelial cells; experiment: Adherence of neutrophils to cultured (TNF-stimulated) endothelial cells; assay type: cell-based; conditions: for neutrophil adherence blocking activity (in words): compared with FHA Ca
Procedure: Human umbilical vein endothelial cells (HUVEC, first passage, Clonetics, San Diego, Calif.) were subcultured at confluence into Terasaki tissue culture wells. After 24 hours, confluent monolayers were used for adherence assays. Monolayers were stimulated with 10 ng/ml TNF alpha (Boehringer Mannheim, Indianapolis, Ind.) at 37° C. for four hours. 30 μl of human neutrophils (10^6 /ml) were labeled with fluorescein by the method of Lo et al. (1991), J. Exp. Med. 173 1493-1500, and preincubated for 15 minutes at 37° C. with 20 μl of peptides (0.5 mM in HAP) or HAP (phosphate buffered saline containing 0.5 mg/ml human serum albumin, 3 mM glucose, and 0.3 U/ml aprotinin) as a control buffer. For some experiments, endothelial cells were pretreated from 10 minutes with Factor X or antibodies against Factor X receptor (EPR-1; Altieri et al. (1990), J. Immunol. 145, 246-253) 12H1 and 9D4 (obtained from Dr. D. Altieri, Scripps Research Institute, Lajolla, Calif.) and then washed. Neutrophils were allowed to adhere to the monolayer for 15 mins. at 37° C. and unbound cells were removed by submersion of the plate in PBS buffer. The number of adherent neutrophils was counted in a 40× microscope field and expressed as a percentage of adherence in control wells with neutrophils treated with HAP buffer alone. The mAb IB4 against CD18 (50 μg/ml; Merck Inc., Rahway, N.J.) served as a positive control.
(§2) The procedures for determining the neutrophil adherence to cultured endothelial cells and the transendothelial migration of neutrophils were identical with those of Example 9. Control values were the same as those shown in Example 9.

[2] = Stability in 50% rabbit plasma; assay type: in vitro ADME; conditions: 37° C.
Procedure: To determine the stability of the FHA II peptide, the unmodified or the acetylated-amidated peptide were incubated in 50% rabbit plasma at 37° C.

blood-brain barrier = experiment: Rat meningitis model (LOS): blood-brain barrier permeability; assay type: in vivo; conditions: rat, in vivo
Procedure: (§3) Briefly, anesthetized female Wistar rats were placed under a micromanipulator and inoculated intracisternally with a 25 gauge needle. After removal of 50 μl of CSF (without visible blood contamination), rats were inoculated intracisternally with 50 μl (20 ng) of LOS using a 1 ml syringe with a 25 gauge needle. Ten to fifteen minutes after inoculation with LOS, the rats were treated by intravenous administration of the test substance: a solution of an FHA peptide in PBS, a solution of a control peptide in PBS, or an equal volume of PBS alone.
(§4) Three hours after LOS inoculation, 5 μCi of ^125 I-radiolabelled albumin in 50 μl normal saline was administered intravenously. One hour later, CSF was collected via intracisternal puncture and blood samples were collected via intracardiac puncture. CSF leukocytosis was determined by manually counting white blood cells using a hemacytometer, and blood-brain barrier permeability was determined as the percent of radioactivity in whole blood that was present in the CSF. Blood samples were obtained immediately prior to inoculation, immediately prior to treatment, and at 4 hours post-inoculation for determination of peripheral white blood cell concentrations.

leukocytes in CSF [3] = experiment: Rat meningitis model (LOS): CSF leukocytosis; assay type: in vivo; conditions: 4 hours
Procedure: The experiments were performed according to established protocols (Wispelway et al., 1988, J. Clin. Invest., 82: 1339-1346). Purified Haemophilus influenzae type b strain DL42 lipooligosaccharide (LOS) was prepared for inoculation by sonication for 30 minutes, dilution to the desired concentration (20 ng/50 μl) in normal saline or PBS, and sonication for an additional 15 to 30 minutes just prior to use.
as §3, §4

[4] = Peripheral white blood cells in rats; conditions: rat, in vivo
Procedure: as §4

leukocytes in CSF [5] = experiment: Rabbit meningitis model: leukocyte migration into CSF; assay type: in vivo
Procedure: as §1
The anti-inflammatory effects of the administered peptides were assessed in the rabbit model for meningitis by the procedures described in Example 10. The animals received 1 ml of 1 uM peptide intravenously. In a slight departure from the protocol described in Example 10, samples of blood were drawn from the left marginal ear vein 30 minutes after the administration of the peptides to determine peripheral leukocyte concentrations.

neutrophils = experiment: Transendothelial migration of neutrophils; assay type: cell-based, human; conditions: peptides 0.01 mM
Procedure: Transendothelial migration of neutrophils was studied based on a method described by Muller et al. (1992), J. Exp. Med. 176: 819-828. Briefly, human neutrophils suspended in ice-cold Hanks balanced salt solution (HBSS) containing Ca^++ and Mg^++ (Sigma) were fluoresceinated by adding 3.3 μl/ml 5-(and 6-)carboxyfluorescein diacetate, succinimidyl ester (CFSE, Molecular Probes Inc., Oreg.). After incubation for 30 mins. on ice, neutrophils were washed twice in cold HBSS with Ca^++ and Mg^++ and resuspended in cold Medium 199 (M199, Sigma) to a final concentration of 10^6 /ml. Human umbilical vein endothelial cells were subcultured at confluence into 96-well tissue culture plates (Becton Dickinson Labware, Lincoln Park, N.J.) that were coated with hydrated collagen gel (Vitrogen; Collagen Corporation, Palo Alto, Calif.) and fibronectin. Endothelial cells were stimulated with 10 ng/ml TNF-alpha for 4 hours and washed three times with warm M199. Neutrophils (10^6 /ml) were preincubated with 0.01 mM of peptides or with 1 μM of native FHA in M199 for 5 mins. on ice before they were added in 100 μl aliquots to the endothelial cells. For positive control, neutrophils were pre-incubated with 25 μg/ml anti-CD18 mAb IB4. For negative control, neutrophils were treated with 25 μg/ml mAb W6/32 against HLA class I antigen (Dako, Carpinteria, Calif.). The cells were incubated for 1 hour at 37° C., 5% CO2. To terminate transmigration, the supernatant fluid was aspirated and the wells were filled with warm 1 mM EGTA (Sigma) in HBSS without Ca and Mg. The plates were covered with plate sealers (Dynatech, Alexandria, Va.) and centrifuged in an inverted position at 250 g for 3 mins. at room temperature. To remove residual non-transmigrated neutrophils from the endothelial cells, monolayers were washed twice with 200 μl of warm Hanks solution without Ca and Mg. Fluorescence was quantitated using a fluorescence counter (Millipore Cytofluor™ 2300). The percentage of transmigrated neutrophils was determined by comparing the amount of fluorescence of test wells with that measured in collagen- and fibronectin-coated wells without endothelial cells. […] Percent inhibition of transendothelial migration of neutrophils was calculated by comparing the number of transmigrated cells in wells containing neutrophils treated with peptide to neutrophils treated with M199 alone and arbitrarily set at 100% transendothelial migration (TEM).
as §2

ciliated cells = conditions: cited from earlier work

T1 sequence (P05107 23-769, other chains not shown): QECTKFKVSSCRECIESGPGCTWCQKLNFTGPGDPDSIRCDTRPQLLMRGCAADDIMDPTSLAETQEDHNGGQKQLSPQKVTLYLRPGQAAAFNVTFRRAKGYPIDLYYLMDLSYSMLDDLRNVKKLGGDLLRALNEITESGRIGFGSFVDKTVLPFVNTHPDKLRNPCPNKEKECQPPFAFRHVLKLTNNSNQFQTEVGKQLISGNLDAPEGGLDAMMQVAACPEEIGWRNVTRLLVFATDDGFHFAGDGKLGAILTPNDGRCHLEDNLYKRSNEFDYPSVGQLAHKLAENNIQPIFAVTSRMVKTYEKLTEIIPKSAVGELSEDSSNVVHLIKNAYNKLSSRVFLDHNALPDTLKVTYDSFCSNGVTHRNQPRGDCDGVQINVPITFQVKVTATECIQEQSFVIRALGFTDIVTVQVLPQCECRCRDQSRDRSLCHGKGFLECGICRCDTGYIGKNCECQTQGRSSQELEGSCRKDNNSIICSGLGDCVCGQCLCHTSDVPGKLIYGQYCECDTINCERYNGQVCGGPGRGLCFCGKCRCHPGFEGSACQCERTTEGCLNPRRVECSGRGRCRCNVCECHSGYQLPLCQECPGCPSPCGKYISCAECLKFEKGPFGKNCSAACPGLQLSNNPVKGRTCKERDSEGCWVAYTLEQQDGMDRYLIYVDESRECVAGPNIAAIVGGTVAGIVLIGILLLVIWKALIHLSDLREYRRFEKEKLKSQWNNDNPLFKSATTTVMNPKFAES

Molecule: OC[C@H]1O[C@@H](O[C@H]2[C@H](O)[C@@H](O)C(O)O[C@@H]2CO)[C@H](O)[C@@H](O)[C@H]1O (stereo partly drawn) [Lactose]
- colonization of rabbit lung (B. pertussis): decrease colonization of rabbit lung

Molecule: CC1(C)S[C@@H]2[C@H](NC(=O)Cc3ccccc3)C(=O)N2[C@H]1C(=O)O [penicillin]
- bound to albumin (albumin): ~80%

Molecule: AADPHQGVLAQGDIIMDAKG [FHA Cc]
- Total protein in CSF (blood brain barrier; 6 hours): 1.36 ± 0.16 mg/mL
- Total protein in CSF (blood brain barrier; 7 hours): 1.90 ± 0.22 mg/mL
- effect on CD11b/CD18 (in words) (CD11b/CD18): no significant effect
- neutrophil adherence blocking activity (in words) ([1]; 0.5 mM): activity was detectable above background but was not statistically different from buffer alone

Molecule: Ac-ETKEVDG-NH2 [Acetyl/Amide-FHA II]
- protein influx into CSF and lactate generation (in words) (blood brain barrier; 10 μM peptides, 0.1 μM FHA): significantly reduced protein influx into the CSF and generation of lactate
- concentration over time (in words) [2]: remained unchanged over 48 hours
- interference with neutrophil adherence (in words) ([1]; peptides 0.5 mM): significantly enhanced the ability of peptide FHA II to block neutrophil adherence to endothelia
- inhibition of blood-brain barrier permeability (in words) (blood-brain barrier): not observed
- Leukocytosis (CSF leukocyte concentration) (leukocytes in CSF [3]; 600 nmol i.v.): approximately 10,000 cells/ml
- Leukocytosis (CSF leukocyte concentration) (leukocytes in CSF [3]; 600 nmol i.v., listed as ac/am FHA II): 10,500 ± 8523 cells/ml
- neutropenia [4]: No neutropenia
- leukocytes in CSF (leukocytes in CSF [5]; 6 hours, 10 nmoles i.v.): 3011±684 cells/μl

Molecule: Ac-VEEDTKG-NH2 [scrambled ac/am FHA II, VEEDTKG, reference compound]
- Leukocytosis (CSF leukocyte concentration) (leukocytes in CSF [3]; 600 nmol i.v.): 14,287 ± 10,199 cells/ml

Molecule: GTLLLRNDALTENGTVTISA [FHA Cd]
- Total protein in CSF (blood brain barrier; 6 hours): 1.71 ± 0.19 mg/mL
- Total protein in CSF (blood brain barrier; 7 hours): 2.03 ± 0.57 mg/mL
- % Inhibition of TEM (neutrophils): 6 ± 6%
- effect on CD11b/CD18 (in words) (CD11b/CD18): no significant effect
- inhibition of neutrophil adherence to endothelial cells ([1]; 0.5 mM): < 15%
- leukocyte recruitment into CSF (in words) (leukocytes in CSF [5]; 1 μM peptide i.v.): no effect

Molecule: IDVPQHGGAMRDLGIAQGKD [scrambled FHA Ca, reference compound]
- Leukocytosis (CSF leukocyte concentration) (leukocytes in CSF [3]; 100 nmol i.v.): 20,700 ± 7,400 cells/ml

Molecule: RADPHQGVLAQGDIIMDAKG [FHA Cb]
- Total protein in CSF (blood brain barrier; 6 hours): 1.91 ± 0.24 mg/mL
- Total protein in CSF (blood brain barrier; 7 hours): 2.28 ± 0.28 mg/mL
- % Inhibition of TEM (neutrophils): 8 ± 9%
- effect on CD11b/CD18 (in words) (CD11b/CD18): no significant effect
- neutrophil adherence blocking activity (in words) ([1]; 0.5 mM): activity was decreased by half
- leukocyte migration into CSF (in words) (leukocytes in CSF [5]; 0.1 μM peptide i.v.): ineffective
- leukocyte density in CSF (leukocytes in CSF [5]; 7 hours, 1 ml of 1 uM peptide i.v.): 2788±1022 cells/μl CSF

Molecule: lactosamines
- inhibition of adherence of B. pertussis to human ciliated cells (ciliated cells): Inhibition of adherence
